Measured values from patent publication US11554171B2, “Compounds and methods for the targeted degradation of bromodomain-containing proteins” (Arvinas Operations, Inc., priority 2015, dated 2023).

Test system: c-myc in 22RV-1 cells
Assay: Human c-myc ELISA assay
Format: cell-based
Conditions: Homo sapiens; for Emax: 22Rv1, 18 h, read-out: Degradation of BRD4: Maximum inhibition (%) c-Myc ELISA in 22RV1 cells; for DC50: 22Rv1, read-out: Degradation of BRD4: DC50 (uM) c-Myc ELISA in 22RV1 cells
Outline: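 22RV-1 cells treated 18 h with 8-point 1:3 compound dilutions (final top 300 nM or 1 μM, 0.1% DMSO). Cells lysed in RIPA buffer with protease/phosphatase inhibitors, and c-myc protein in cleared lysate quantified by ELISA against a standard curve. DC50 reported for c-myc suppression.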

With `Cc1ncsc1-c1ccc([C@H](C)NC(=O)[C@@H]2C[C@@H](O)CN2C(=O)[C@@H](NC(=O)COc2ccc(O[C@H]3C[C@@H](NC(=O)C[C@@H]4N=C(c5ccc(Cl)cc5)c5c(sc(C)c5C)-n5c(C)nnc54)C3)nc2)C(C)(C)C)cc1` [Example 119, (2S,4R)-1-[(2S)-3,3-dimethyl-2-[2-({6-[(1,3-cis)-3-{2-[(9S)-7-(4-chlorophenyl)-4,5,13-trimethyl-3-thia-1,8,11,12-tetraazatricyclo[8.3.0.0^2,^6]trideca-2(6),4,7,10,12-pentaen-9-yl]acetamido}cyclobutoxy]pyridin-3-yl}oxy)acetamido]butanoyl]-4-hydroxy-N-[(1S)-1-[4-(4-methyl-1,3-thiazol-5-yl)phenyl]ethyl]pyrrolidine-2-carboxamide] the Emax was 96% and the DC50 was less than 0.01 µM.
`Cc1ncsc1-c1ccc(CNC(=O)[C@@H]2C[C@@H](O)CN2C(=O)[C@@H](NC(=O)COCCCOc2ccc(-c3cnc(NC(=O)C[C@@H]4N=C(c5ccc(Cl)cc5)c5c(sc(C)c5C)-n5c(C)nnc54)cn3)cc2F)C(C)(C)C)cc1` [Example 22] was tested, and the Emax was 94% and the DC50 was 0.01 to 0.1 µM.
With `Cc1ncsc1-c1ccc(CNC(=O)[C@@H]2C[C@@H](O)CN2C(=O)[C@@H](NC(=O)COCCCOCCCCOCCCOc2ccc(NC(=O)C[C@@H]3N=C(c4ccc(Cl)cc4)c4c(sc(C)c4C)-n4c(C)nnc43)cc2)C(C)(C)C)cc1` [Example 13] the Emax was 100% and the DC50 was 0.01 to 0.1 µM.
`Cc1ncsc1-c1ccc(CNC(=O)[C@@H]2C[C@@H](O)CN2C(=O)[C@H](C(C)C)n2cc(-c3ccnc(O[C@H](C)CNC(=O)C[C@@H]4N=C(c5ccc(Cl)cc5)c5c(sc(C)c5C)-n5c(C)nnc54)c3)cn2)cc1` [Example 168] gave an Emax of 92% and a DC50 of 0.01 to 0.1 µM.
`Cc1ncsc1-c1ccc(CNC(=O)[C@@H]2C[C@@H](O)CN2C(=O)[C@@H](NC(=O)COCCOCCOCCCCOCCOCCNC(=O)C[C@@H]2N=C(c3ccc(Cl)cc3)c3c(sc(C)c3C)-n3c(C)nnc32)C(C)(C)C)cc1` [Example 9] showed an Emax of 96.4% and a DC50 of 0.1 to 1 µM.
`Cc1ncsc1-c1ccc(CNC(=O)[C@@H]2C[C@@H](O)CN2C(=O)[C@H](C(C)C)n2cc(-c3cccc(O[C@H](C)CNC(=O)C[C@@H]4N=C(c5ccc(Cl)cc5)c5c(sc(C)c5C)-n5c(C)nnc54)c3)cn2)cc1` [Example 232] showed an Emax of 83% and a DC50 of 0.01 to 0.1 µM.
With `Cc1ncsc1-c1ccc([C@H](C)NC(=O)[C@@H]2C[C@@H](O)CN2C(=O)[C@@H](NC(=O)Cc2cccc(C(=O)N3CCN(C(=O)C[C@@H]4N=C(c5ccc(Cl)cc5)c5c(sc(C)c5C)-n5c(C)nnc54)CC3)c2)C(C)(C)C)cc1` [Example 326] the Emax was 92% and the DC50 was 0.01 to 0.1 µM.
In the case of `Cc1ncsc1-c1ccc([C@H](C)NC(=O)[C@@H]2C[C@@H](O)CN2C(=O)[C@@H](NC(=O)c2cc3ccc(O[C@H]4C[C@@H](NC(=O)C[C@@H]5N=C(c6ccc(Cl)cc6)c6c(sc(C)c6C)-n6c(C)nnc65)C4)cc3o2)C(C)(C)C)cc1` [Example 212], the Emax is reported as 95% and the DC50 is reported as less than 0.01 µM.
For `Cc1ncsc1-c1ccc(CNC(=O)[C@@H]2C[C@@H](O)CN2C(=O)[C@@H](NC(=O)COCCc2cccc(CNC(=O)C[C@@H]3N=C(c4ccc(Cl)cc4)c4c(sc(C)c4C)-n4c(C)nnc43)c2)C(C)(C)C)cc1` [Example 69], the Emax was 93.4% and the DC50 was 0.01 to 0.1 µM.
`Cc1noc(-c2ccc([C@H](C)NC(=O)[C@@H]3C[C@@H](O)CN3C(=O)[C@@H](NC(=O)Cc3ccc(O[C@H]4C[C@H](NC(=O)C[C@@H]5N=C(c6ccc(Cl)cc6)c6c(sc(C)c6C)-n6c(C)nnc65)C4)cc3)C(C)(C)C)cc2)n1` [Example 275] was tested, and the Emax was 50.1% and the DC50 was 0.1 to 1 µM.
Compound `Cc1ncsc1-c1ccc(CNC(=O)[C@@H]2C[C@@H](O)CN2C(=O)[C@@H](NC(=O)COCCOCCOCCNC(=O)C[C@H]2N=C(c3ccc(Cl)cc3)c3c(sc(C)c3C)-n3c(C)nnc32)C(C)(C)C)cc1` [Example 104] has an Emax of less than 5% and a DC50 greater than 1 µM.
`Cc1ncsc1-c1ccc(CNC(=O)[C@@H]2C[C@@H](O)CN2C(=O)[C@@H](NC(=O)COCCN2CCC(NC(=O)C[C@@H]3N=C(c4ccc(Cl)cc4)c4c(sc(C)c4C)-n4c(C)nnc43)CC2)C(C)(C)C)cc1` [Example 79] showed an Emax of 50.8% and a DC50 greater than 1 µM.
Work on `Cc1ncsc1-c1ccc(CNC(=O)[C@@H]2C[C@@H](O)CN2C(=O)[C@@H](NC(=O)COCCN2CCN(c3ccc(CNC(=O)C[C@@H]4N=C(c5ccc(Cl)cc5)c5c(sc(C)c5C)-n5c(C)nnc54)cc3)CC2)C(C)(C)C)cc1` [Example 60] yielded an Emax of 91% and a DC50 of 0.1 to 1 µM.
`Cc1ncsc1-c1ccc([C@H](C)NC(=O)[C@@H]2C[C@@H](O)CN2C(=O)[C@@H](NC(=O)COc2ccnc(O[C@H]3C[C@H](NC(=O)C[C@@H]4N=C(c5ccc(Cl)cc5)c5c(sc(C)c5C)-n5c(C)nnc54)C3)c2)C(C)(C)C)cc1` [Example 227] showed an Emax of 100% and a DC50 of less than 0.01 µM.
Compound `Cc1ncsc1-c1ccc([C@H](C)NC(=O)[C@@H]2C[C@@H](O)CN2C(=O)[C@@H](NC(=O)Cc2ccc(-c3cn(CCNC(=O)C[C@@H]4N=C(c5ccc(Cl)cc5)c5c(sc(C)c5C)-n5c(C)nnc54)cn3)cc2)C(C)(C)C)cc1` [Example 337] has an Emax of 96.4% and a DC50 of less than 0.01 µM.
Work on `Cc1sc2c(c1C)C(c1ccc(Cl)cc1)=N[C@@H](CC(=O)N[C@H]1C[C@@H](Oc3cccc(-c4cnn([C@H](C(=O)N5C[C@H](O)C[C@H]5C(=O)N[C@@H](C)c5ccc(-n6ccnc6C)cc5)C(C)C)c4)c3)C1)c1nnc(C)n1-2` [Example 299] yielded an Emax of 72.5% and a DC50 of 0.1 to 1 µM.
`Cc1ncsc1-c1ccc(CNC(=O)[C@@H]2C[C@@H](O)CN2C(=O)[C@@H](NC(=O)CCN2CCC(OCCNC(=O)C[C@@H]3N=C(c4ccc(Cl)cc4)c4c(sc(C)c4C)-n4c(C)nnc43)CC2)C(C)(C)C)cc1` [Example 123] showed an Emax of 19.7% and a DC50 greater than 1 µM.
`Cc1ncsc1-c1ccc(CNC(=O)[C@@H]2C[C@@H](O)CN2C(=O)[C@@H](NC(=O)COCCOCCOCCOCCOCCNC(=O)C[C@@H]2N=C(c3ccc(Cl)cc3)c3c(sc(C)c3C)-n3c(C)nnc32)C(C)(C)C)cc1` [Example 7] gave an Emax of 93% and a DC50 of 0.1 to 1 µM.
For `Cc1ncsc1-c1ccc([C@H](C)NC(=O)[C@@H]2C[C@@H](O)CN2C(=O)[C@@H](NC(=O)CCc2cc(F)cc(O[C@H](C)CNC(=O)C[C@@H]3N=C(c4ccc(Cl)cc4)c4c(sc(C)c4C)-n4c(C)nnc43)c2)C(C)(C)C)cc1` [Example 203], the Emax was 92% and the DC50 was less than 0.01 µM.
For `Cc1ncsc1-c1ccc([C@H](C)NC(=O)[C@@H]2C[C@@H](O)CN2C(=O)[C@@H](NC(=O)COCCOc2cccc(NC(=O)C[C@@H]3N=C(c4ccc(Cl)cc4)c4c(sc(C)c4C)-n4c(C)nnc43)c2)C(C)(C)C)cc1` [Example 124], the Emax was 98% and the DC50 was less than 0.01 µM.
`Cc1ncsc1-c1ccc([C@H](C)NC(=O)[C@@H]2C[C@@H](O)CN2C(=O)[C@@H](NC(=O)CN2CCC(O[C@H]3C[C@H](NC(=O)C[C@@H]4N=C(c5ccc(Cl)cc5)c5ccccc5-c5c(C)noc54)C3)CC2)C(C)(C)C)cc1` [Example 350, (2S,4R)-1-[(2S)-3,3-dimethyl-2-(2-{4-[(1,3-trans)-3-{2-[(7S)-9-(4-chlorophenyl)-3-methyl-5-oxa-4,8-diazatricyclo[8.4.0.0^2,^6]tetradeca-1(10),2(6),3,8,11,13-hexaen-7-yl]acetamido}cyclobutoxy]piperidin-1-yl}acetamido)butanoyl]-4-hydroxy-N-[(1S)-1-[4-(4-methyl-1,3-thiazol-5-yl)phenyl]ethyl]pyrrolidine-2-carboxamide] gave an Emax of 100% and a DC50 of less than 0.01 µM.
`Cc1sc2c(c1C)C(c1ccc(Cl)cc1)=N[C@@H](CC(=O)NCCOCCCOCC(=O)N[C@H](C(=O)N1C[C@H](O)C[C@H]1C(=O)NCc1ccc(Cl)cc1)C(C)(C)C)c1nnc(C)n1-2` [Example 76] showed an Emax of 58.6% and a DC50 of 0.1 to 1 µM.
`Cc1ncsc1-c1ccc([C@H](C)NC(=O)[C@@H]2C[C@@H](OC(=O)CCN)CN2C(=O)[C@@H](NC(=O)c2cc3cc(O[C@H]4C[C@@H](NC(=O)C[C@@H]5N=C(c6ccc(Cl)cc6)c6c(sc(C)c6C)-n6c(C)nnc65)C4)ccc3o2)C(C)(C)C)cc1` [Example 339] showed an Emax of 97% and a DC50 of less than 0.01 µM.
In the case of `Cc1ncsc1-c1ccc([C@H](C)NC(=O)[C@H]2C[C@@H](O)CN2C(=O)[C@@H](NC(=O)CN2CCC(O[C@H]3C[C@H](NC(=O)C[C@@H]4N=C(c5ccc(Cl)cc5)c5c(sc(C)c5C)-n5c(C)nnc54)C3)CC2)C(C)(C)C)cc1` [Example 347], the Emax is reported as less than 5% and the DC50 is reported as greater than 1 µM.
For `Cc1ncsc1-c1ccc(CNC(=O)[C@@H]2C[C@@H](O)CN2C(=O)[C@H](c2cc(OCCCCCNC(=O)C[C@@H]3N=C(c4ccc(Cl)cc4)c4c(sc(C)c4C)-n4c(C)nnc43)no2)C(C)C)cc1` [Example 120], the Emax was 79.5% and the DC50 was 0.1 to 1 µM.
`Cc1ncsc1-c1ccc([C@H](C)NC(=O)[C@@H]2C[C@@H](O)CN2C(=O)[C@@H](NC(=O)CN2C[C@@H](C)N(C3CC4(C3)CN(C(=O)C[C@@H]3N=C(c5ccc(Cl)cc5)c5c(sc(C)c5C)-n5c(C)nnc53)C4)C[C@@H]2C)C(C)(C)C)cc1` [Example 357, (2S,4R)-1-[(2S)-2-{2-[(2S,5R)-4-(2-{2-[(9S)-7-(4-chlorophenyl)-4,5,13-trimethyl-3-thia-1,8,11,12-tetraazatricyclo[8.3.0.0^2,^6]trideca-2(6),4,7,10,12-pentaen-9-yl]acetyl}-2-azaspiro[3.3]heptan-6-yl)-2,5-dimethylpiperazin-1-yl]acetamido}-3,3-dimethylbutanoyl}-4-hydroxy-N-[(1S)-1-[4-(4-methyl-1,3-thiazol-5-yl)phenyl]ethyl]pyrrolidine-2-carboxamide] was tested, and the Emax was 100% and the DC50 was 0.01 to 0.1 µM.
In the case of `Cc1noc(-c2ccc([C@H](C)NC(=O)[C@@H]3C[C@@H](O)CN3C(=O)[C@@H](NC(=O)COc3ccc(O[C@H]4C[C@@H](NC(=O)C[C@@H]5N=C(c6ccc(Cl)cc6)c6c(sc(C)c6C)-n6c(C)nnc65)C4)nc3)C(C)(C)C)cc2)n1` [Example 271], the Emax is reported as 96.4% and the DC50 is reported as less than 0.01 µM.
